Results from US20230346889A9, “TREATMENT OF ACUTE HEART FAILURE” (AnaCardio R&D AB, priority 2019, published 2023).
Entries after “also recorded” stand apart in the source; their conditions may differ.

System: patients with advanced CHF and reduced EF
Assay: Randomized double-blind placebo-controlled trial of intravenous acyl ghrelin: non-invasive hemodynamics (Innocor, Nexfin)
Format: in vivo
Source text: Between 17 Feb. 2013 and 19 May 2015 we conducted a prospective double-blind, placebo-controlled, parallel-group, single centre randomized clinical trial with a one-time treatment of intravenous acyl ghrelin or placebo.
Patients were pre-screened in the Karolinska University Hospital heart failure clinic (FIG. 1) and had symptoms and signs of advanced CHF (New York Heart Association [NYHA] class III-IV) and an EF of ≤40%.
Ghrelin is a 28 amino acid peptide with a molecular weight of 3,371 g/mol. Half-time in plasma is 24-30 minutes. Concentrations in normal humans has variably been reported at 100-300 pmol/L (300-900 ng/L) for total ghrelin. There is limited data on acyl ghrelin but we recently measured acyl ghrelin in 41 healthy non-obese adults: fasting: mean±SD: 118±14 ng/L, 5-95th percentile 27-328 ng/L; trough 60 minutes post 260 kcal mixed meal: 80±12 ng/L, 5-95th percentile 21-293 ng/L. Synthetic acylated (active) human ghrelin (brand name Clinalfa Ghrelin (human) Acetate, product number 4071265; Bachem, Hauptstrasse 144, 4416 Bubendorf, Switzerland—hereafter referred to as ghrelin, was purchased from Bachem (Bubendorf, Switzerland) under license from Daiichi Sankyo (Tokyo, Japan). For each patient and treatment, a stock solution was prepared consisting of multiple vials of powder ghrelin (100 μg ghrelin/vial together with phosphate buffer), each vial dissolved in 1 mL sterile water for infusion (B. Braun, Germany) and visually inspected to be a clear and colorless solution, prior to adding 0.001 g (0.02 ml of 50 g/L stock) human albumin (for concentration 0.001 g/mL=0.1%) to each vial and further mixed with normal saline (NaCl 9 mg/ml, B. Braun, Germany). The proportion of stock solution and saline were according to patient weight (Table 2), resulting in a total volume of 100 mL (to ensure the same volume infusion for all patients). The final intravenous infusion rate was 0.50 mL/min volume (total volume 60 mL), equivalent to 0.1 μg (30 pmol)/kg/min (total amount 12.0 μg/kg) of acyl ghrelin administered to all patients randomized to ghrelin. The infusion was given for 120 minutes and continued until all measurements at 120 minutes had been completed (thus delivering some additional ghrelin). The median total infusion duration was 171 minutes. Measurements were repeated 30 minutes after stopping infusion.
Patients were randomized in parallel by block randomization in groups of 4 using paper envelopes to ghrelin or placebo and the infusion was given by antecubital vein over 120 minutes. A dedicated study nurse prepared ghrelin and placebo for infusion and patients and all other investigators were blinded. Immediately prior to, during, and after the 120 minute infusion and also 30 minutes after stopping the infusion, blood samples were drawn and symptoms, signs, echocardiography, ECG, and non-invasive hemodynamics were assessed (FIG. 2). Patients were discharged to home and returned 2-5 days later for repeat measurements. Patients were followed prospectively for morbidity and mortality outcomes.
Non-invasive resting CO in was assessed in duplicate at each measurement using the Innocor® device (Innovision, Odense, Denmark). The Innocor is a non-invasive device that measures pulmonary blood flow using an inert gas rebreathing technique, and measures VO2 directly. It has been validated for CO and VO2 at rest and exercise (Gabrielsen et al., 2002; Stahlberg et al., 2009).
The Innocor® directly measures pulmonary blood flow, VO2 and SpO2. From these variables, shunt fraction, cardiac output, SVO2 and A-V O2 difference was then calculated using standard formulas. Beat-by-beat ECG, blood pressure and the first derivative of the pressure signal (+dP/dt) were measured using a Nexfin® device (described below). Fifteen minutes of continuous beat-by-beat Nexfin data were averaged at the time of Innocor measurements. Estimated systemic vascular resistance (eSVR) was subsequently calculated as mean blood pressure/cardiac output×80. […]

CCCCCCCC(=O)OC[C@H](NC(=O)[C@H](CO)NC(=O)CN)C(=O)N[C@@H](Cc1ccccc1)C(=O)N[C@@H](CC(C)C)C(=O)N[C@@H](CO)C(=O)N1CCC[C@H]1C(=O)N[C@@H](CCC(=O)O)C(=O)N[C@@H](Cc1cnc[nH]1)C(=O)N[C@@H](CCC(N)=O)C(=O)N[C@@H](CCCNC(=N)N)C(=O)N[C@H](C(=O)N[C@@H](CCC(N)=O)C(=O)N[C@@H](CCC(N)=O)C(=O)N[C@@H](CCCNC(=N)N)C(=O)N[C@@H](CCCCN)C(=O)N[C@@H](CCC(=O)O)C(=O)N[C@@H](CO)C(=O)N[C@@H](CCCCN)C(=O)N[C@@H](CCCCN)C(=O)N1CCC[C@H]1C(=O)N1CCC[C@H]1C(=O)N[C@@H](C)C(=O)N[C@@H](CCCCN)C(=O)N[C@@H](CC(C)C)C(=O)N[C@@H](CCC(N)=O)C(=O)N1CCC[C@H]1C(=O)N[C@@H](CCCNC(=N)N)C(=O)O)C(C)C [Ghrelin]
A-V O2-diff (2-5 day follow-up visit): 27.4 ± 10.0 % | CO (2-5 day follow-up visit): 4.21 ± 1.27 L/min | HR (2-5 day follow-up visit): 71.6 ± 10.8 bpm | PBF (2-5 day follow-up visit): 3.58 ± 0.74 L/min | SV (2-5 day follow-up visit): 59.9 ± 18.5 mL | Shunt (2-5 day follow-up visit): 15.7 ± 16.7% | SpO2 (2-5 day follow-up visit): 94.0 ± 3.9+ % | SvO2 (2-5 day follow-up visit): 66.4 ± 18.4 % | VO2 (2-5 day follow-up visit): 0.22 ± 0.06 L/min | CO compared to placebo group (2-5 days follow-up): still a significant increase in CO | A-V O2 diff (30 min after stop Infusion): 21.6 ± 12.1% | CO (30 min after stop Infusion): 4.94 ± 1.70 L/min | PBF (30 min after stop Infusion): 4.14 ± 0.97 L/min | SV (30 min after stop Infusion): 74.31 ± 26.09 mL | Shunt (30 min after stop Infusion): 12.6 ± 14.3% | SpO2 (30 min after stop Infusion): 94.7 ± 3.9% | SvO2 (30 min after stop Infusion): 73.3 ± 12.8% | VO2 (30 min after stop Infusion): 0.19 ± 0.08 L/min | dBP (30 min after stop Infusion): 58.9 ± 7.5 mmHg | dP/dt (30 min after stop Infusion): 602 ± 252 mmHg/s | mBP (30 min after stop Infusion): 75.5 ± 12.0 mmHg | sBP (30 min after stop Infusion): 105.7 ± 20.5 mmHg | A-V O2 diff (Baseline): 27.6 ± 14.3% | CO (Baseline): 4.08 ± 1.15 L/min | PBF (Baseline): 3.61 ± 0.70 L/min | SV (Baseline): 59.10 ± 17.82 mL | Shunt (Baseline): 9.9 ± 10.6% | SpO2 (Baseline): 95.2 ± 3.4% | SvO2 (Baseline): 67.9 ± 14.4% | VO2 (Baseline): 0.20 ± 0.07 L/min | dBP (Baseline): 58.6 ± 8.4 mmHg | dP/dt (Baseline): 742 ± 267 mmHg/s | mBP (Baseline): 74.9 ± 11.3 mmHg | sBP (Baseline): 104.7 ± 18.4 mmHg | A-V O2-diff (Baseline (Table 8)): 24.4 ± 7.6% | CO (Baseline (Table 8)): 4.08 ± 1.15 L/min | HR (Baseline (Table 8)): 69.6 ± 9.1 bpm | PBF (Baseline (Table 8)): 3.61 ± 0.70 L/min | SV (Baseline (Table 8)): 59.9 ± 19.0 mL | Shunt (Baseline (Table 8)): 9.9 ± 10.6% | SpO2 (Baseline (Table 8)): 95.2 ± 3.4% | SvO2 (Baseline (Table 8)): 67.7 ± 14.3% | VO2 (Baseline (Table 8)): 0.2 ± 0.07 L/min | A-V O2 diff (Infusion + 60 min): 23.6 ± 12.9 % | CO (Infusion + 60 min): 4.64 ± 1.31 L/min | PBF (Infusion + 60 min): 3.76 ± 0.76 L/min | SV (Infusion + 60 min): 69.64 ± 22.75 mL | Shunt (Infusion + 60 min): 16.8 ± 11.8 % | SpO2 (Infusion + 60 min): 93.5 ± 3.5 % | SvO2 (Infusion + 60 min): 70.0 ± 13.8% | VO2 (Infusion + 60 min): 0.19 ± 0.07 L/min | dBP (Infusion + 60 min): 56.5 ± 8.7 mmHg | dP/dt (Infusion + 60 min): 535 ± 213 mmHg/s | mBP (Infusion + 60 min): 71.4 ± 10.2 mmHg | sBP (Infusion + 60 min): 99.0 ± 17.6 mmHg | A-V O2 diff (Infusion + 120 min): 20.9 ± 8.5 % | CO (Infusion + 120 min): 5.23 ± 1.98 L/min | PBF (Infusion + 120 min): 4.08 ± 0.90 L/min | SV (Infusion + 120 min): 79.83 ± 30.30 mL | Shunt (Infusion + 120 min): 18.0 ± 12.3 % | SpO2 (Infusion + 120 min): 93.4 ± 3.6 % | SvO2 (Infusion + 120 min): 71.7 ± 10.1% | VO2 (Infusion + 120 min): 0.19 ± 0.08 L/min | dBP (Infusion + 120 min): 56.1 ± 10.3 mmHg | dP/dt (Infusion + 120 min): 531 ± 191 mmHg/s | mBP (Infusion + 120 min): 70.9 ± 13.1 mmHg | sBP (Infusion + 120 min): 99.0 ± 21.1 mmHg | change in HR (between baseline and 120 minutes): fell slightly | change in calculated SV (during and after infusion): increased with infusion and fell after stop of infusion | change in systolic, diastolic and mean arterial blood pressure (during and after infusion): no changes or differences in changes; also recorded: no changes in blood pressure; also recorded: no effect | change in CO (during and after infusion, primary outcome): increased with infusion and fell after stop of infusion | change in oxygen consumption (VO2) (in vivo): no change | change in pulmonary blood flow (in vivo): increased | change in estimated SVR (with infusion): fell and decrease
